What all share (assay type): cell-based, mouse
In one experiment the test system is ConA 1° splenocytes. Briefly: Survival of ConA 1° splenocytes (cytotoxicity by MTS staining). Particulars: ConA-stimulated splenocytes.
For a further experiment, the system named is TNFa on macrophages. The experiment in a line: Inhibition of TNFα release from stimulated macrophages. The settings on record: LPS and IFN-γ stimulated primary macrophages, ELISA. As for the experimental part:
Peritoneal exudate macrophages were isolated by peritoneal lavage with ice-cold sterile physiological saline 24 hours after intraperitoneal injection of BALB/c mice with 0.5 mL of sterile Zymosan A (1 mg/0.5 mL 0.9% saline). […] Murine primary macrophage will get activated following incubation with LPS in the presence of sub-optimal doses of IFN-γ. […] TNF-αlevels in the supernatants from stimulated macrophages were determined with PharMingen's OptEIA TNF-α kit (PharMingen). The experiment was performed at room temperature, about 21° C., unless otherwise stated. The microwells (F8 MaxiSorp™ Loose/Nunc-Immuno Module; Gibco/BRL) were coated with 100 μl/well of capture antibody (at the recommended concentration) and incubated overnight at 4° C. […] Next, the solution was removed and the plates were washed 5× with wash buffer. The TNF-αanalysis was initiated by adding duplicate samples (100 μl/well) or standards (100 μl/well) in diluent buffer which were incubated for 2 h. The solution was removed and the plates washed 5× with wash buffer. Enzyme reagent (100 μl) containing biotinylated mouse TNF-αmonoclonal antibody and avidin-horseradish peroxidase conjugate (at concentrations recommended by the manufacturer) was added to each well. The plate was incubated for 1 hour, the solution removed, and the plates washed 7× with wash buffer. […] Colour development was terminated by adding 50 μl of 2N H2SO4. […] Peritoneal exudate macrophages were isolated by peritoneal lavage with ice-cold sterile physiological saline 24 hours after intraperitoneal injection of BALB/c mice with 0.3 ml of sterile zymosan A (1 mg/0.5 mL 0.9% saline). […] All treatments were replicated six times. Cells were incubated for an additional 24 hours, and cell free culture supernatants from each well were collected for NO and cytokine determination. The remaining cells were stained with crystal violet to determine effect of the compound on cell survival.
In general terms: In an ELISA, binding on a coated surface is turned into a signal by an enzyme label.

The next experiment relates to IL-12 on macrophages. The experiment in a line: Inhibition of IL-12 release from stimulated macrophages. Particulars: LPS and IFN-γ stimulated primary macrophages, ELISA. The method, then: Peritoneal exudate macrophages were isolated by peritoneal lavage with ice-cold sterile physiological saline 24 hours after intraperitoneal injection of BALB/c mice with 0.5 mL of sterile Zymosan A (1 mg/0.5 mL 0.9% saline). […] Murine primary macrophage are activated following incubation with LPS in the presence of sub-optimal doses of IFN-γ. Upon activation, macrophages participate actively in the onset of inflammation by releasing bioactive molecules that amplify the initial inflammatory response. […] Briefly, IL-12 levels in the supernatants from stimulated macrophages were determined with PharMingen's OptEIA™ ELISA set developed using an anti-mouse IL-12 antibody pair and mouse rIL-12 standard (PharMingen). Maxisorp™ F16 multiwell strips (Nunc, Roskilde, Denmark) were coated with anti-mouse IL-12 capture Ab (at recommended concentration) in 0.1 M NaHCO3, pH 9.5, 100 μL/well, overnight at 4° C. […] Plates were washed 3× with PBST and duplicate samples (100 μL/well) or standards (100 μL/well) in diluent buffer were incubated for 2 h. Plates were washed five times with PBST and incubated with biotinylated anti-mouse IL-12 and avidin-horseradish peroxidase (HRP) conjugate (at concentrations recommended by the manufacturer) for 1 h. […] Peritoneal exudate macrophages were isolated by peritoneal lavage with ice-cold sterile physiological saline 24 hours after intraperitoneal injection of BALB/c mice with 0.3 ml of sterile zymosan A (1 mg/0.5 mL 0.9% saline). […] All treatments were replicated six times. Cells were incubated for an additional 24 hours, and cell free culture supernatants from each well were collected for NO and cytokine determination. The remaining cells were stained with crystal violet to determine effect of the compound on cell survival.

In another experiment the test system is macrophages. The experiment in a line: Survival of macrophages. The settings on record: stimulated primary macrophages.

pIC50: −log10 of the molar value. Bounds are passed on as bounds.

The pIC50 is −log10 of the IC50, conventionally taken in molar units. `COc1cc2sc(-c3c(N4CCNCC4)n[nH]c3N)nc2cc1F` [4-(5-Fluoro-6-methoxybenzothiazole)-5-piperizin-1-yl-2H-pyrazol-3-ylamine]: the pIC50 with ConA 1° splenocytes was 4.76; with TNFa on macrophages it was 4.83; with IL-12 on macrophages, 4.63; in the experiment on macrophages, under 4.60.
For `COc1cc2sc(-c3c(NCCN(C)C)n[nH]c3N)nc2cc1F` [N^3-(2-Dimethylaminoethyl)-4-(5-fluoro-6-methoxybenzothiazole)-1H-pyrazole-3,5-diamine] the same measures were under 4.60, 4.77, under 4.60 and under 4.60.

(Values after patent US8754233B2, “Pyrazolylbenzothiazole derivatives and their use as therapeutic agents” (Dermira (Canada), Inc., priority 2002, dated 2014).)
